Results: paper PMC12715762, “Discovery of VU6052254: A Novel, Potent M1 Positive Allosteric Modulator” (ACS Chemical Neuroscience, 2025)
Entries after “also recorded” stand apart in the source; their conditions may differ.

What was measured:
Imidazoline I2, Central = test: Eurofins radioligand binding; conditions: Rat
Serotonin (5-HT1A) = Serotonin (5-HT1A) (Homo sapiens, UniProt P08908); test: Eurofins radioligand binding
Sprague-Dawley rats = test: novel object recognition (NOR); assay type: in vivo, rat
Method: monitored continuously and scored for behavioral manifestations of seizure activity at 5, 15, 30 min, and 1 h. Behavioral manifestations of seizures were scored using a modified Racine scoring system. Briefly, a score of 0 represents no behavior alterations; score 1, immobility, mouth and facial movements, or facial clonus; score 2, head nodding, tail extension; score 3, forelimb clonus, repetitive movements; score 4, rearing and tonic clonic seizure; and score 5, continuous rearing and falling, severe generalized tonic clonic seizure.
Novel Object Recognition Task
Rats were habituated for 10 min for 2 consecutive days in an empty novel object recognition (NOR) arena consisting of dark-colored plexiglass box (40 × 64 × 33 cm3). On day 3 rats were administered vehicle, M1 PAM 3 (1-10 mg/kg, p.o.., 10 mL/kg, n = 13-18), or M 1 PAM 5 (0.3-3 mg/kg, p.o.., 10 mL/kg, n = 16-18) and returned to their home cage for 60 min (M 1 PAM 5) or 2 hr (M1 PAM 3. Rats were then placed in the NOR arena containing two identical objects for 10 min. Following the exposure period, rats were placed back into their home cages for 24 h. The rats were then returned to the arena in which one of the previously exposed (familiar) objects was replaced by a novel object and were video recorded for 5 min while they explored the two objects.
Time spent exploring each object was scored by an observer blinded to the experimental conditions and the recognition index was calculated as [(time spent exploring novel object) – (time spent exploring familiar object)]/total time exploring objects.

M1 KO mice = test: Racine seizure assay in M1 KO mice; assay type: in vivo, mouse; conditions: result in words
CYP 2B6 = CYP 2B6 (Homo sapiens, UniProt P20813); test: CYP450 inhibition; assay type: in vitro ADME
rats = test: 14-day rat toxicology and toxicokinetic study; assay type: in vivo; conditions: for cholinergic/SLUDGE adverse effects in 14-day rat study: 30 and 300 mg/kg PO; for change in serum creatinine concentration: males
Method: (§1) PAM 7, after a 250 g scale-up, advanced into 14-day rat toxicology studies, with vehicle (PEG-400), 30 mg/kg PO and 300 mg/kg PO cohorts, N = 6 per sex per cohort. […] Higher serum creatinine concentrations were however noted in males at both dose levels (+100% at 30 mg/kg/day and +300% at 300 mg/kg/day). […] Based on the observations of correlative clinical and anatomic kidney toxicity findings in an exploratory 14-day toxicity and toxicokinetics rat study, in conjunction with uncertain margins to projected systemic human therapeutic efficacy and CYP3A4 induction concerns, the development of PAM 7 was discontinued.

[1] = 14-day rat toxicology and toxicokinetic study; assay type: in vivo; conditions: both sexes, rat, plasma, po, PEG-400, rat
Method: as §1

[2] = 300 mg/kg, Day 14, 300 mg/kg PO

Chain of CYP 2B6 (P20813 whole entry): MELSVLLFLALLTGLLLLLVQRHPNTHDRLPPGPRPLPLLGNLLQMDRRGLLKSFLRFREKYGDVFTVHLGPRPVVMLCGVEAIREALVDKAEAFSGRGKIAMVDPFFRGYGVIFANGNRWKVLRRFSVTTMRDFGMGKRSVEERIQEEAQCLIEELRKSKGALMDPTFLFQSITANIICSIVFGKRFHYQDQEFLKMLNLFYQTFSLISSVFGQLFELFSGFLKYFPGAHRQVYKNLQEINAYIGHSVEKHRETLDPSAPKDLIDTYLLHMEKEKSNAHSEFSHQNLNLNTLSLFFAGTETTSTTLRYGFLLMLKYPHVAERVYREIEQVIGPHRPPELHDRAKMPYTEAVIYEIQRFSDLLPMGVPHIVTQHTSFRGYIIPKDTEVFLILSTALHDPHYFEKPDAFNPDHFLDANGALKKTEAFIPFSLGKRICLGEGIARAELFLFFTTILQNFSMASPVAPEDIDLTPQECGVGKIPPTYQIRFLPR
Chain of Serotonin (5-HT1A) (P08908 whole entry): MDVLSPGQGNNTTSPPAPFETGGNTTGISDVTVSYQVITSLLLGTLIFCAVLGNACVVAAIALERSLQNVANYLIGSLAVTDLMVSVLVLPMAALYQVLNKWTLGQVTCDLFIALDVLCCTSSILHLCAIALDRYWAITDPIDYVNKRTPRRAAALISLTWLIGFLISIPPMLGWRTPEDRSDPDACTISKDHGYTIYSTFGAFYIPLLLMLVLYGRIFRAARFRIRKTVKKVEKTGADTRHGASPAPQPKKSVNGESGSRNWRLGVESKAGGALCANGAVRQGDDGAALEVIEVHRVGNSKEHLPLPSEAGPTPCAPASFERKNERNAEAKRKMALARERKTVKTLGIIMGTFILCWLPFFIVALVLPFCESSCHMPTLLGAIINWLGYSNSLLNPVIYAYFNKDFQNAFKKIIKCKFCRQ

Cn1cc2c(-c3cc(F)c(CN4Cc5ncccc5C4=O)c(F)c3)ccc(C(C)(C)O)c2n1 [compound 7]
% Inhibition at 10 µM (Imidazoline I2, Central): 64%
inhibition at 10 µM (Serotonin (5-HT1A)): 12%
free brain concentration at NOR MED (Sprague-Dawley rats; 1 mg/kg PO, rat): 71 nM
effect on recognition index / recognition memory in NOR (Sprague-Dawley rats; 0.3 to 3.0 mg/kg PO, result in words): dose-dependently increased the recognition index; also recorded: dose-dependently enhanced the recognition memory
minimum effective dose (MED) in rat NOR (Sprague-Dawley rats; PO, 10% Tween 80 in water, male Sprague-Dawley rats): 1 mg/kg
margin in terms of dose, NOR MED relative to the seizure assay and the Irwin battery (Sprague-Dawley rats; rat, in vivo): ~50 fold
margin in terms of total brain exposure, NOR MED relative to the seizure assay and the Irwin battery (Sprague-Dawley rats; rat, in vivo): 11- to 16 fold
Racine-scale effects in M1 KO mice (M1 KO mice): absent
IC50 (CYP 2B6): > 30 µM
microscopic pathology of kidney (rats; 300 mg/kg/day, result in words): pyknotic cells were also seen in collecting tubules, and less extensively, in the renal papilla
cholinergic/SLUDGE adverse effects in 14-day rat study (rats; result in words): No cholinergic/SLUDGE adverse effects were observed
cholinergic/SLUDGE adverse effects in 14-day rat study (rats; result in words, listed as VU6052254): no cholinergic adverse effects
microscopic pathology of renal cortex and medulla (rats; both dose levels, result in words): dose-related increase in number of pyknotic cells in the lumen of descending tubules/proximal collecting tubules
total plasma concentration relative to the plasma concentration at MED in the CFC assay (0.3 mg/kg PO) (rats; first of the two printed values (30 mg/kg cohort implied)): 125 x
fibrinogen concentration (rats; males administered 300 mg/kg, result in words): minimally higher fibrinogen concentration
hematology test results (rats; males administered up to 30 mg/kg, result in words): no PAM 7-related effects noted in hematology test results
change in serum creatinine concentration (rats; 30 mg/kg/day): +100%
change in serum creatinine concentration (rats; 300 mg/kg/day): +300%
organ weights or histology (rats; result in words): no gross changes on organ weights or histology
total plasma concentration relative to the plasma concentration at MED in the CFC assay (0.3 mg/kg PO) (rats; second of the two printed values (300 mg/kg cohort implied)): 227 x
AUC(0-t) ([1]; 30 mg/kg, Day 1, 30 mg/kg PO): 224 µM·h
Cmax ([1]; 30 mg/kg, Day 1, 30 mg/kg PO): 20.9 µM
AUC(0-t) ([1]; 30 mg/kg, Day 14, 30 mg/kg PO): 107 µM·h
Cmax ([1]; 30 mg/kg, Day 14, 30 mg/kg PO): 10 µM
AUC(0-t) ([1]; 300 mg/kg, Day 1, 300 mg/kg PO): 758 µM·h
Cmax ([1]; 300 mg/kg, Day 1, 300 mg/kg PO): 37.9 µM
AUC(0-t) [1, 2]: 909 µM·h
Cmax [1, 2]: 52.9 µM
